These results are taken from PMC12445474, “Conservation of heat stress acclimation by the IPK2-type kinases that control the synthesis of the inositol pyrophosphate 4/6-InsP7 in land plants” (PLOS Genetics, 2025).

By Kd is commonly meant the free concentration of one partner at which half of the binding sites on the other are occupied at equilibrium, for simple one-to-one binding.

Series [1] has as its target T1, MpIPMK (Marchantia polymorpha, UniProt A0A2R6WAL0).
T1 construct: gene MARPO_0118s0021; full-length CDS in pET28b, N-terminal His8-MBP fusion, E. coli, Ni-NTA purified in PBS; tag kept
The series can be described thus: in vitro kinase assay, PAGE and CE-MS of products. Format: biochemical. As to conditions: 12.5 mM ATP, 10 nmol InsP6, 5 mM MgCl2, 20 mM HEPES pH 7.5, 1 mM DTT, 37 °C, 12 h.

The target of a further series is T2, AtIPK2α (Arabidopsis thaliana, UniProt Q9LY23).
T2 construct: gene IPK2a; full-length CDS in pET28b, N-terminal His8-MBP-TEV, E. coli BL21 (RIL); tag removed by TEV for ITC, His8-MBP fusion for kinase assays
T2 sequence (Q9LY23 1-286): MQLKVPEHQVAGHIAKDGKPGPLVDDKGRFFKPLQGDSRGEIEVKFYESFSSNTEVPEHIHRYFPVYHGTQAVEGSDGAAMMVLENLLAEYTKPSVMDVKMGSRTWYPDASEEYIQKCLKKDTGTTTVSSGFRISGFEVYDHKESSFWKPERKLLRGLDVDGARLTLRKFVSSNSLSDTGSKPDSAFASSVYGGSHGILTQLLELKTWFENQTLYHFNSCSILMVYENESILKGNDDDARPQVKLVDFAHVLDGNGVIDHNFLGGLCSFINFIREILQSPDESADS
In words: isothermal titration calorimetry. Format: binding. (In ITC the heat of successive injections is recorded.)

Series [2] concerns the target T3, AtIPK2β (Arabidopsis thaliana, UniProt Q9FLT2).
T3 construct: gene IPK2b; full-length CDS in pET28b, N-terminal His8-MBP-TEV, E. coli BL21 (RIL); tag removed by TEV for ITC, His8-MBP fusion for kinase assays
T3 sequence (Q9FLT2 1-300): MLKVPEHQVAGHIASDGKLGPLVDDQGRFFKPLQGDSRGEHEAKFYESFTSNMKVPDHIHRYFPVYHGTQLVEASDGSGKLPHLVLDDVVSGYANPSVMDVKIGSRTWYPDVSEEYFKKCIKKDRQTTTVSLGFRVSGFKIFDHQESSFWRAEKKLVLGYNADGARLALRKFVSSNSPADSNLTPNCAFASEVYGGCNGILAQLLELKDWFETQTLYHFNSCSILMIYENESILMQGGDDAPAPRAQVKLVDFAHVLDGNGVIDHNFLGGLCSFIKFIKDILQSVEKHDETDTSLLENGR
In words: isothermal titration calorimetry. The class given is binding.

Series [3] has as its target T4, AtHSFA1b (Arabidopsis thaliana, UniProt O81821 1-481). The series can be described thus: EMSA; 25-200 nM protein, 250 nM probe; EMSA: 250 nM FAM probe, 15 min on ice (30 min pre-incubation with partner or InsP), 6% native PAGE; binding buffer not stated (proteins purified in PBS pH 7.4). The settings on record: protein: recombinant; tags: N-terminal His8-MBP; chain copies: 3; label: 5' FAM on strand 1; 5' overhang 4 nt at both ends, 26 bp duplex. Background: Mobility shift assays separate free from complexed probe on a gel.

Series [4] addresses T5, MpIPMK (Marchantia polymorpha (Tak-1), UniProt A0A2R6WAL0 1-319).
T5 sequence: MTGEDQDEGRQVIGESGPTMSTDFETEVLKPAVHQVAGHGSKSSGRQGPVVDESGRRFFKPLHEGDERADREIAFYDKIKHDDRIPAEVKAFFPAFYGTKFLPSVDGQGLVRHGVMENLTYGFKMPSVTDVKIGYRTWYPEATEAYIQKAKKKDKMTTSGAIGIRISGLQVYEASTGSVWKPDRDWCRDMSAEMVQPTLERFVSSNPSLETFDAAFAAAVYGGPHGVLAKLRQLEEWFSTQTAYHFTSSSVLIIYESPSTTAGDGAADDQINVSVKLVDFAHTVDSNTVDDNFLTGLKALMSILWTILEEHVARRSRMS
In words: EMSA; 50-200 nM protein, 250 nM probe; EMSA: 250 nM FAM probe, 15 min on ice (30 min pre-incubation with partner or InsP), 6% native PAGE; binding buffer not stated (proteins purified in PBS pH 7.4). The settings on record: protein: recombinant; tags: N-terminal His8-MBP; label: 5' FAM on strand 1; 5' overhang 4 nt at both ends, 26 bp duplex.

For series [5], the target named is T6, AtIPK2β (Arabidopsis thaliana (Col-0), UniProt Q9FLT2 1-300).
T6 sequence: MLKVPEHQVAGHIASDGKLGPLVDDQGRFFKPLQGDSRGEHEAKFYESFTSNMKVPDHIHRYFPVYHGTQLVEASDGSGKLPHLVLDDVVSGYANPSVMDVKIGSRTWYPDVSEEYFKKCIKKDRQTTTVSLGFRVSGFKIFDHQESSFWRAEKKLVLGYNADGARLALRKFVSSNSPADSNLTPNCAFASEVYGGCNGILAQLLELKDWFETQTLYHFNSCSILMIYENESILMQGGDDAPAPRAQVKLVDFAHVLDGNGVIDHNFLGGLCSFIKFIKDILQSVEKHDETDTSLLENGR
The description is as above. The settings on record: protein: recombinant; tags: N-terminal His8-MBP-TEV; label: 5' FAM on strand 1; 5' overhang 4 nt at both ends, 26 bp duplex.

Series [6] deals with T4, AtHSFA1b. The series is described as above. As to conditions: protein: recombinant; tags: N-terminal His8-MBP; chain copies: 3; label: 5' FAM on strand 1; 5' overhang 4 nt at both ends, 18 bp duplex.

T4 sequence (O81821 whole entry): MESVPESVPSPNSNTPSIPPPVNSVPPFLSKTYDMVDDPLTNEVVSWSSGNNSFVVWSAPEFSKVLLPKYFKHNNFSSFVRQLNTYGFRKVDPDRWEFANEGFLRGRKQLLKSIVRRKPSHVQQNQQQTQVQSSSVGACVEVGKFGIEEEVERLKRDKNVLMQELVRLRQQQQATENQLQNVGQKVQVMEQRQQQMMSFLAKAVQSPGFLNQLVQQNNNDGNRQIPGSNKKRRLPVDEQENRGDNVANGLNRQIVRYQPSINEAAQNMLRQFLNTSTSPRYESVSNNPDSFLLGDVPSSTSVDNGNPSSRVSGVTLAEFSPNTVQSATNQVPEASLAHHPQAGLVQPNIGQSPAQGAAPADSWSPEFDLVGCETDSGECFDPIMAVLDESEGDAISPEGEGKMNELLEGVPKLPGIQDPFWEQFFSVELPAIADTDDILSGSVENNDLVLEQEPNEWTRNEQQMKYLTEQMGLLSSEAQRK

Take `O=P(O)(O)O[C@H]1[C@H](OP(=O)(O)O)[C@@H](OP(=O)(O)O)[C@H](OP(=O)(O)O)[C@@H](OP(=O)(O)O)[C@H]1OP(=O)(O)O` [InsP6]: the kinase activity entry on MpIPMK [1] was “demonstrating that MpIPMK phosphorylates InsP6 in vitro”. Further, the results for the Kd at AtIPK2α and at AtIPK2β [2] were roughly 2 µM and roughly 0.5 µM, respectively.

Consider `O=P(O)(O)O[C@@H]1[C@H](O)[C@H](O)[C@@H](OP(=O)(O)O)[C@H](OP(=O)(O)O)[C@H]1O` [Ins(1,4,5)P3], for which the Kd was roughly 7 µM on AtIPK2α and roughly 6 µM on AtIPK2β [2].

B1: FAM-HSE (AtHSP18.1 promoter element) (dsDNA)
DNA 1: CTCGGTCGATCGAGAAGCTTCTGCATGATG
DNA 2: AAACCATCATGCAGAAGCTTCTCGATCGAC
Turning to B1, the binding result with AtHSFA1b [3] was “binds”; with MpIPMK [4], “no binding”; in the series with AtIPK2β [5], “no binding”.

B2: HSE∆ (dsDNA)
DNA 1: CTCGGTCGATCGATGCATGATG
DNA 2: AAACCATCATGCATCGATCGAC
Turning to B2, in the series with AtHSFA1b [6], the binding result is recorded as “no binding”.
